Experimental data from US9974778B2, “Substituted pyridinones as MGAT2 inhibitors” (BRISTOL-MYERS SQUIBB COMPANY, priority 2014, dated 2018).

Molecular target: T1, Human MGAT-2 (Homo sapiens, UniProt Q3SYC2)
T1 construct: made in house; host or cells: Sf9 cells (membrane preparation)
Test: MGAT LCMS Assay
Format: biochemical
Conditions: human MGAT2 membranes expressed in Sf9 cells; 100 μM 2-oleoylglycerol, 15 μM oleoyl-coenzyme A; read-out: h-MGAT LCMS IC50
Procedure: Assay plates were run through a fully automated robotics system and shaken for 5 seconds every minute for a total 10 minutes. The reactions were then quenched with 120 μL of ice cold methanol containing 1 μg/mL 1,2-distearoyl-rac-glycerol as the internal standard. Plates were shaken for 2 minutes and spun down to remove protein precipitation. After the spin, samples were transferred to LC/MS compatible PCR plates. For LC/MS analysis, a ThermoFisher Surveyor pump, utilizing a Waters […]® C8, 50×2.1 mm column, was used for the chromatography of enzyme products. The buffer system consists of 0.1% formic acid in water with a mobile phase consisting 0.1% formic acid in methanol. […] The first 0.5 minutes of each injection was diverted to waste to eliminate the presence of Phosphate buffer in the enzymatic reaction. The column was run at 0.6 mL/min and a temperature of 65° C. Mass spectrometry analysis of the samples was performed on a ThermoFisher Quantum Triple quad utilizing APCI (+) as the mode of ionization. […] The ratio of Diolein to internal standard (Peak Area Ratio) is utilized to calculate IC50 values.

T1 sequence (Q3SYC2 whole entry): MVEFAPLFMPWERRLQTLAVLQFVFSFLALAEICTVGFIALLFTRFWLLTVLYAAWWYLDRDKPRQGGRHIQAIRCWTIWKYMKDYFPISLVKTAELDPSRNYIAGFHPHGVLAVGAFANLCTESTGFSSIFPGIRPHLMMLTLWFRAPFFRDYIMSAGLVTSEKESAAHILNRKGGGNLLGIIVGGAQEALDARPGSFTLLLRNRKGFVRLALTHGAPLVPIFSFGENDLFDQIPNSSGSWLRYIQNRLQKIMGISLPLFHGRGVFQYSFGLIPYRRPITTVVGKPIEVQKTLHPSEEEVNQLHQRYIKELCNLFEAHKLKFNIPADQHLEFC

| Compound | IC50 |
| --- | --- |
| CCOc1cc(OCCCC(F)(F)F)ccc1-c1cc(-c2ccc(C)cc2)c(C(=O)NS(=O)(=O)C2CC2)c(=O)[nH]1 [Example 126, N-(Cyclopropylsulfonyl)-6-(2-ethoxy-4-(4,4,4-trifluorobutoxy)phenyl)-2-oxo-4-(p-tolyl)-1,2-dihydropyridine-3-carboxamide] | 43 nM |
| O=c1[nH]c(-c2ccc(OCCCCC(F)(F)F)cc2)cc(-c2ccc(C3CC3)s2)c1-c1nnn[nH]1 [Example 46] | 27 nM |
| Cc1ccc(-c2cc(-c3ccc(OCCCC(F)(F)F)cc3)[nH]c(=O)c2-c2nnn[nH]2)cc1C [Example 50, 4-(3,4-Dimethylphenyl)-3-(1H-tetrazol-5-yl)-6-(4-(4,4,4-trifluorobutoxy)phenyl)pyridin-2(1H)-one] | 109 nM |
| O=C(NS(=O)(=O)C1CC1)c1c(-c2ncc(C3CC3)s2)cc(-c2ccc(OCCCC(F)(F)F)cc2F)[nH]c1=O [Example 138, N-(Cyclopropylsulfonyl)-4-(5-cyclopropylthiazol-2-yl)-6-(2-fluoro-4-(4,4,4-trifluorobutoxy)phenyl)-2-oxo-1,2-dihydropyridine-3-carboxamide] | 13 nM |
| CC(C)(C)c1ccc(-c2cc(-c3ccc(OCCCC(F)(F)F)cc3)[nH]c(=O)c2C(=O)NS(=O)(=O)C2CC2)cc1 [Example 12, 4-(4-(tert-Butyl)phenyl)-N-(cyclopropylsulfonyl)-2-oxo-6-(4-(4,4,4-trifluorobutoxy)phenyl)-1,2-dihydropyridine-3-carboxamide] | 56 nM |
| CCn1ccc(-c2cc(-c3ccc(OCCCC(F)(F)F)cc3C(F)(F)F)[nH]c(=O)c2-c2nn[nH]n2)n1 [Example 129, 4-(1-Ethyl-1H-pyrazol-3-yl)-3-(2H-tetrazol-5-yl)-6-(4-(4,4,4-trifluorobutoxy)-2-(trifluoromethyl)phenyl)pyridin-2(1H)-one] | 51 nM |
| CCOc1ccc(NC(=O)c2c(-c3ccc(C)cc3)cc(C3(F)CCCCC3)[nH]c2=O)cc1 [Example 41, N-(4-Ethoxyphenyl)-6-(1-fluorocyclohexyl)-2-oxo-4-(p-tolyl)-1,2-dihydropyridine-3-carboxamide] | 36 nM |
| CCn1ccc(-c2cc(-c3ccc(OCCCC(F)(F)F)cc3F)[nH]c(=O)c2C(=O)Nc2ccc(OC(F)(F)F)cc2)n1 [Example 120, 4-(1-Ethyl-1H-pyrazol-3-yl)-6-(2-fluoro-4-(4,4,4-trifluorobutoxy)phenyl)-2-oxo-N-(4-(trifluoromethoxy)phenyl)-1,2-dihydropyridine-3-carboxamide] | 45 nM |
| CCOc1ccc(NC(=O)c2c(-c3ccc(C)cc3)c(I)c(C3CCCCC3)[nH]c2=O)cc1 [Example 15, 6-Cyclohexyl-N-(4-ethoxyphenyl)-5-iodo-2-oxo-4-(p-tolyl)-1,2-dihydropyridine-3-carboxamide] | 5 nM |
| CCc1cnc(-c2cc(-c3ccc(OCCCC(F)(F)F)cc3F)[nH]c(=O)c2C(=O)NS(C)(=O)=O)s1 [Example 146, 4-(5-Ethylthiazol-2-yl)-6-(2-fluoro-4-(4,4,4-trifluorobutoxy)phenyl)-N-(methylsulfonyl)-2-oxo-1,2-dihydropyridine-3-carboxamide] | 29 nM |
| Cc1ccc(-c2cc(-c3ccc(OCCCC(F)(F)F)cc3C(F)(F)F)[nH]c(=O)c2C(=O)Nc2ccc(OC(F)(F)F)cc2)cc1 [Example 111, 2-Oxo-4-(p-tolyl)-6-(4-(4,4,4-trifluorobutoxy)-2-(trifluoromethyl)phenyl)-N-(4-(trifluorormethoxy)phenyl)-1,2-dihydropyridine-3-carboxamide] | 2 nM |
| O=c1[nH]c(-c2ccc(OCCCC(F)(F)F)cc2)cc(-c2ccn(C3CC3)n2)c1-c1nn[nH]n1 [Example 76, 4-(1-Cyclopropyl-1H-pyrazol-3-yl)-3-(2H-tetrazol-5-yl)-6-(4-(4,4,4-trifluorobutoxy)phenyl)pyridin-2(1H)-one] | 87 nM |
| CCOc1ccc(NC(=O)c2c(-c3ccc(C)cc3)cc(-c3cnn(CCCCCC(F)(F)F)c3)[nH]c2=O)cc1 [Example 53, N-(4-Ethoxyphenyl)-2-oxo-4-(p-tolyl)-6-(1-(6,6,6-trifluorohexyl)-1H-pyrazol-4-yl)-1,2-dihydropyridine-3-carboxamide] | 267 nM |
| CCCCCc1ccc(-c2cc(-c3ccc(C)cc3)c(NC(=O)c3ccccc3)c(=O)[nH]2)cc1 [Example 14, N-(2-Oxo-6-(4-pentylphenyl)-4-(p-tolyl)-1,2-dihydropyridin-3-yl)benzamide] | 100 nM |
| CCOc1ccc(NC(=O)c2c(-c3cnc(N(C)C)s3)cc(C3(O)CCCCC3)[nH]c2=O)cc1 [Example 9, 4-(2-(Dimethylamino)thiazol-5-yl)-N-(4-ethoxyphenyl)-6-(1-hydroxycyclohexyl)-2-oxo-1,2-dihydropyridine-3-carboxamide] | 293 nM |
| CC(C)n1ccc(-c2cc(-c3ccc(CCCCC(F)(F)F)cc3)[nH]c(=O)c2-c2nn[nH]n2)n1 [Example 74, 4-(1-Isopropyl-1H-pyrazol-3-yl)-3-(2H-tetrazol-5-yl)-6-(4-(5.5,5-trifluoropentyl)phenyl)pyridin-2(1H)-one] | 255 nM |
| CCc1ccc(-c2cc(-c3ccc(C4=CCC(C)(C)CC4)cc3)[nH]c(=O)c2-c2nn[nH]n2)s1 [Example 144, 6-(4′,4′-Dimethyl-2′,3′,4′,5′-tetrahydro-[1,1′-biphenyl]-4-yl)-4-(5-ethylthiophen-2-yl)-3-(2H-tetrazol-5-yl)pyridin-2(1H)-one] | 24 nM |
| Cc1ccc(-c2cc(-c3ccc(OCCCC(F)(F)F)cc3Cl)[nH]c(=O)c2C(=O)Nc2ccc(OC(F)(F)F)cc2)cc1 [Example 132, 6-(2-Chloro-4-(4,4,4-trifluorobutoxy)phenyl)-2-oxo-4-(p-tolyl)-N-(4-(trifluoromethoxy)phenyl)-1,2-dihydropyridine-carboxamide] | 14 nM |
| O=c1[nH]c(-c2ccc(OCCCCCC(F)(F)F)cc2F)cc(-c2ccc(C3CC3)cc2)c1-c1nnn[nH]1 [Example 123, 4-(4-Cyclopropylphenyl)-6-(2-fluoro-4-((6,6,6-trifluorohexyl)oxy)phenyl)-3-(1H-tetrazol-5-yl)pyridin-2(1H)-one] | 11 nM |
| O=c1cc(-c2ncc(C3CC3)s2)cc(-c2ccc(OCCCCCC(F)(F)F)cc2F)[nH]1 [Example 165, 4-(5-Cyclopropyl-1,3-thiazol-2-yl)-6-{2-fluoro-4-[(6,6,6-trifluorohexyl)oxy]phenyl}-1,2-dihydropyridin-2-one] | 420 nM |
| CCc1ccc(-c2cc(-c3ccc(OCCCC(F)(F)F)cc3F)[nH]c(=O)c2C(=O)NS(C)(=O)=O)s1 [Example 135, 4-(5-Ethylthiophen-2-yl)-6-(2-fluoro-4-(4,4,4-trifluorobutoxy)phenyl)-N-(methylsulfonyl)-2-oxo-1,2-dihydropyridine-3-carboxamide] | 5 nM |
| CCOc1ccc(NC(=O)c2c(-c3ccc(C)cc3)cc(-c3ccc(OCCCC(F)(F)F)cc3)[nH]c2=O)cc1 [Example 5, N-(4-Ethoxyphenyl)-2-oxo-4-(p-tolyl)-6-(4-(4,4,4-trifluorobutoxy)phenyl)-1,2-dihydropyridine-3-carboxamide] | 21 nM |
| O=c1[nH]c(-c2ccc(OCCCC(F)(F)F)cc2)cc(-c2cc3ccccc3s2)c1-c1nnn[nH]1 [Example 47, 4-(Benzo[b]thiophen-2-yl)-3-(1H-tetrazol-5-yl)-6-(4-(4,4,4-trifluorobutoxy)phenyl)pyridin-2(1H)-one] | 29 nM |
